Source: patent publication US10758534B2 (Vertex Pharmaceuticals Incorporated, priority 2014, dated 2020)

These compounds were tested against T1, F508del (Homo sapiens, UniProt P13569, DEL508-508) (assay: Protocol 2: FRET membrane potential optical assay (VIPR), identification of correction compounds). Details: Table 3; compounds of Table 1 as modulators of CFTR activity; protocol not stated.
T1 construct: expressed in transfected cells
Type: cell-based
Outline: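 Single-addition HTS format: F508del-expressing NIH3T3 cells pre-incubated 16 hrs at 37° C. ± compound, with 27° C. culture as positive control. Channel activation by forskolin 10 μM and genistein 20 μM upon switch to gluconate bath, pH 7.4; read-out is FRET-based depolarization signal.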

T1 sequence (P13569 with tags, fused parts or gaps DEL508-508): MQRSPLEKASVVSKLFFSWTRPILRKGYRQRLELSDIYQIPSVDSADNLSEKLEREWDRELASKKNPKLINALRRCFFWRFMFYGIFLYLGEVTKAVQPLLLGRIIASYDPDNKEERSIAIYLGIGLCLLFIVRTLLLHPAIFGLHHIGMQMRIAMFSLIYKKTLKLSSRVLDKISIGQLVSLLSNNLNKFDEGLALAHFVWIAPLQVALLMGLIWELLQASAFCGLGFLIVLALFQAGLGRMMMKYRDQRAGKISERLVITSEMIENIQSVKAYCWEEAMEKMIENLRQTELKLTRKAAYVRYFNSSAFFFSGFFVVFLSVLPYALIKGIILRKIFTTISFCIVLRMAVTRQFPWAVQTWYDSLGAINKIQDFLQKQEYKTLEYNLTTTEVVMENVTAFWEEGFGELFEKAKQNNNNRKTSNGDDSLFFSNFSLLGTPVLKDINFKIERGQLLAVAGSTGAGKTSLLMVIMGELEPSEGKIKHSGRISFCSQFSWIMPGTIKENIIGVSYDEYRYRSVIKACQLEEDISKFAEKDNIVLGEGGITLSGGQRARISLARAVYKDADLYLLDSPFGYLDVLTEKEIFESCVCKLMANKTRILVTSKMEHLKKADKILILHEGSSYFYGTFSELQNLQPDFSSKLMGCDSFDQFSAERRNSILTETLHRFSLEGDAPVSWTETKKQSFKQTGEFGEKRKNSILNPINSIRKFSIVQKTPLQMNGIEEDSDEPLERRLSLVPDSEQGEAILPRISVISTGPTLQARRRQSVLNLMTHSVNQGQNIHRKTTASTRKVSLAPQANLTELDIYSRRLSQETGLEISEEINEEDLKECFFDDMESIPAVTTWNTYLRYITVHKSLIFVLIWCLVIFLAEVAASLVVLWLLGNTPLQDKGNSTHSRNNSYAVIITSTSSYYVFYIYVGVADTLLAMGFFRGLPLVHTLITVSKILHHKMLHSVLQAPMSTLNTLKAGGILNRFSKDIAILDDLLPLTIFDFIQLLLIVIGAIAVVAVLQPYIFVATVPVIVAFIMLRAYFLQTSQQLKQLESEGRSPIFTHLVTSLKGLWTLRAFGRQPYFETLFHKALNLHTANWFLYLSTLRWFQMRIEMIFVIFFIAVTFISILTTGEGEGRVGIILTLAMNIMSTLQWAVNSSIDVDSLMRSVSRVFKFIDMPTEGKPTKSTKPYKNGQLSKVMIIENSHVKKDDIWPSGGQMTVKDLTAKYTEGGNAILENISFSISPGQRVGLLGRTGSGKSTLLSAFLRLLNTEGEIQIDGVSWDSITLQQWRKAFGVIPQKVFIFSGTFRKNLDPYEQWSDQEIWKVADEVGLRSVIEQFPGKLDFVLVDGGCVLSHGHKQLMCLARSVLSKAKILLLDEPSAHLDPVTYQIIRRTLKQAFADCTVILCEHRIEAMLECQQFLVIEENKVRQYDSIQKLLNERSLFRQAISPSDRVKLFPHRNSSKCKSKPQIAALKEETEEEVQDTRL

EC30	Structure (SMILES)
+++ (“+++” means <3 uM)	Cc1cc(C)c(Oc2nc(C3(C(F)(F)F)CC3)ccc2C(=O)NS(=O)(=O)c2cccc(N)n2)c(C)c1 [Compound 621, N-[(6-amino-2-pyridyl)sulfonyl]-6-[1-(trifluoromethyl)cyclopropyl]-2-(2,4,6-trimethylphenoxy)pyridine-3-carboxamide]
+++ (“+++” means <3 uM)	Cc1cc(C)c(Oc2nc(-c3ccc(F)cc3O)ccc2C(=O)NS(=O)(=O)c2cccc(N)n2)c(C)c1 [Compound 622, N-[(6-amino-2-pyridyl)sulfonyl]-6-(4-fluoro-2-hydroxy-phenyl)-2-(2,4,6-trimethylphenoxy)pyridine-3-carboxamide]
++ (“++” means between 3 uM and 10 uM)	Cc1ccc(-c2nc(C(C)(C)C)ccc2C(=O)NS(=O)(=O)c2ccccc2C#N)cc1 [Compound 623, 6-tert-butyl-N-(2-cyanophenyl)sulfonyl-2-(p-tolyl)pyridine-3-carboxamide]
++ (“++” means between 3 uM and 10 uM)	COc1cc(-c2ccc(C(=O)NS(=O)(=O)c3ccc[nH]c3=O)c(Oc3c(C)cc(C)cc3C)n2)ccc1F [Compound 624, 6-(4-fluoro-3-methoxy-phenyl)-N-[(2-oxo-1H-pyridin-3-yl)sulfonyl]-2-(2,4,6-trimethylphenoxy)pyridine-3-carboxamide]
+++ (“+++” means <3 uM)	CC(C)Oc1ccc(-c2ccc(C(=O)NS(=O)(=O)c3cccc(N)n3)c(N3CCC(c4ccccc4)C3C)n2)cn1 (stereo not drawn) [Compound 625, N-[(6-amino-2-pyridyl)sulfonyl]-6-(6-isopropoxy-3-pyridyl)-2-(2-methyl-3-phenyl-pyrrolidin-1-yl)pyridine-3-carboxamide]
+++ (“+++” means <3 uM)	CC(C)(C)c1ccc(C(=O)NS(=O)(=O)c2cccc(N)n2)c(N2CCC[C@H](c3ccccc3)C2)n1 [Compound 626, N-[(6-amino-2-pyridyl)sulfonyl]-6-tert-butyl-2-[(3R)-3-phenyl-1-piperidyl]pyridine-3-carboxamide]
+ (“+” means greater than 10 uM)	Cc1cc(C)c(Cn2c(C(=O)NS(=O)(=O)c3ccnc(N)c3)cc3ccccc32)c(C)c1 [Compound 627, N-[(2-amino-4-pyridyl)sulfonyl]-1-[(2,4,6-trimethylphenyl)methyl]indole-2-carboxamide]
+++ (“+++” means <3 uM)	Cc1cc(C)c(CN2CCc3ccccc3CC2C(=O)NS(=O)(=O)c2cc[nH]n2)c(C)c1 (stereo not drawn) [Compound 628, N-(1H-pyrazol-3-ylsulfonyl)-3-[(2,4,6-trimethylphenyl)methyl]-1,2,4,5-tetrahydro-3-benzazepine-4-carboxamide]
+++ (“+++” means <3 uM)	COc1cc(C)cc(OC)c1-c1ccc(C(=O)NS(=O)(=O)c2cccc(N)n2)c(Oc2c(C)cc(C)cc2C)n1 [Compound 629, N-[(6-amino-2-pyridyl)sulfonyl]-6-(2,6-dimethoxy-4-methyl-phenyl)-2-(2,4,6-trimethylphenoxy)pyridine-3-carboxamide]
+++ (“+++” means <3 uM)	CC(C)c1ccc(-c2ccc(C(=O)NS(=O)(=O)c3cccc(N)n3)c(N3C[C@@H](C)CC3(C)C)n2)cc1 [Compound 630, N-[(6-amino-2-pyridyl)sulfonyl]-6-(4-isopropylphenyl)-2-[(4S)-2,2,4-trimethylpyrrolidin-1-yl]pyridine-3-carboxamide]
+++ (“+++” means <3 uM)	CC(C)Cn1cc(-c2ccc(C(=O)NS(=O)(=O)c3cccc(N)n3)c(N3CC(C)CC3(C)C)n2)cn1 (stereo not drawn) [Compound 631, N-[(6-amino-2-pyridyl)sulfonyl]-6-(1-isobutylpyrazol-4-yl)-2-(2,2,4-trimethylpyrrolidin-1-yl)pyridine-3-carboxamide]
++ (“++” means between 3 uM and 10 uM)	Cc1ccc(-c2nc(C(C)(C)C)ccc2C(=O)NS(=O)(=O)c2ccn[nH]2)cc1 [Compound 632, 6-tert-butyl-2-(p-tolyl)-N-(1H-pyrazol-5-ylsulfonyl)pyridine-3-carboxamide]
+++ (“+++” means <3 uM)	Cc1cc(C)c(Oc2nc(-n3nc(C(F)(F)F)cc3C)ccc2C(=O)NS(=O)(=O)c2cccc(N)n2)c(C)c1 [Compound 633, N-[(6-amino-2-pyridyl)sulfonyl]-6-[5-methyl-3-(trifluoromethyl)pyrazol-1-yl]-2-(2,4,6-trimethylphenoxy)pyridine-3-carboxamide]
+++ (“+++” means <3 uM)	Cc1ccc(Oc2nc3c(cc2C(=O)NS(=O)(=O)c2ccc[nH]c2=O)CCCC3(C)C)c(C)c1 [Compound 634, 2-(2,4-dimethylphenoxy)-8,8-dimethyl-N-[(2-oxo-1H-pyridin-3-yl)sulfonyl]-6,7-dihydro-5H-quinoline-3-carboxamide]
+ (“+” means greater than 10 uM)	Cc1ccc(-c2nc3c(cc2C(=O)NS(=O)(=O)c2ccc(N)nc2)CCCC3(C)C)cc1 [Compound 635, N-[(6-amino-3-pyridyl)sulfonyl]-8,8-dimethyl-2-(p-tolyl)-6,7-dihydro-5H-quinoline-3-carboxamide]
++ (“++” means between 3 uM and 10 uM)	Cc1ccc(-c2nc(C(C)(C)C)ccc2C(=O)NS(=O)(=O)c2cccnc2N)cc1 [Compound 636, N-[(2-amino-3-pyridyl)sulfonyl]-6-tert-butyl-2-(p-tolyl)pyridine-3-carboxamide]
++ (“++” means between 3 uM and 10 uM)	CCOc1ccc(C(=O)NS(=O)(=O)c2cccc(N)n2)c(Oc2c(C)cc(C)cc2C)n1 [Compound 637, N-[(6-amino-2-pyridyl)sulfonyl]-6-ethoxy-2-(2,4,6-trimethylphenoxy)pyridine-3-carboxamide]
++ (“++” means between 3 uM and 10 uM)	Cc1cc(C)c(Oc2nc(-c3ccc(CC#N)cc3)ccc2C(=O)NS(=O)(=O)c2cccc(N)n2)c(C)c1 [Compound 638, N-[(6-amino-2-pyridyl)sulfonyl]-6-[4-(cyanomethyl)phenyl]-2-(2,4,6-trimethylphenoxy)pyridine-3-carboxamide]
+++ (“+++” means <3 uM)	CCOc1ccc(-c2ccc(C(=O)NS(=O)(=O)c3cccc(N)n3)c(Oc3ccc(C)cc3C)n2)cc1 [Compound 641, N-[(6-amino-2-pyridyl)sulfonyl]-2-(2,4-dimethylphenoxy)-6-(4-ethoxyphenyl)pyridine-3-carboxamide]
++ (“++” means between 3 uM and 10 uM)	CC1CN(c2nc(-c3ccncc3)ccc2C(=O)NS(=O)(=O)c2cccc(N)n2)C(C)(C)C1 (stereo not drawn) [Compound 643, N-[(6-amino-2-pyridyl)sulfonyl]-6-(4-pyridyl)-2-(2,2,4-trimethylpyrrolidin-1-yl)pyridine-3-carboxamide]
+++ (“+++” means <3 uM)	CCCOc1cc(-c2ccc(C(=O)NS(=O)(=O)c3cccc(N)n3)c(N3CC(C)CC3(C)C)n2)ccc1Cl (stereo not drawn) [Compound 644, N-[(6-amino-2-pyridyl)sulfonyl]-6-(4-chloro-3-propoxy-phenyl)-2-(2,2,4-trimethylpyrrolidin-1-yl)pyridine-3-carboxamide]
++ (“++” means between 3 uM and 10 uM)	Cc1cc(C)c(Oc2nc(-c3cc(F)cc(OC(C)C)c3)ccc2C(=O)NS(=O)(=O)c2ccc[nH]c2=O)c(C)c1 [Compound 645, 6-(3-fluoro-5-isopropoxy-phenyl)-N-[(2-oxo-1H-pyridin-3-yl)sulfonyl]-2-(2,4,6-trimethylphenoxy)pyridine-3-carboxamide]
++ (“++” means between 3 uM and 10 uM)	CNc1cccc(S(=O)(=O)NC(=O)c2ccc(C)nc2Oc2c(C)cc(C)cc2C)n1 [Compound 646, 6-methyl-N-[[6-(methylamino)-2-pyridyl]sulfonyl]-2-(2,4,6-trimethylphenoxy)pyridine-3-carboxamide]
+++ (“+++” means <3 uM)	CC(C)Oc1ccc(-c2ccc(C(=O)NS(=O)(=O)c3cccc(N)n3)c(N3CCC(Cc4ccccc4)C3)n2)cn1 (stereo not drawn) [Compound 647, N-[(6-amino-2-pyridyl)sulfonyl]-2-(3-benzylpyrrolidin-1-yl)-6-(6-isopropoxy-3-pyridyl)pyridine-3-carboxamide]
+++ (“+++” means <3 uM)	CCOc1cccc2c1CN(Cc1c(C)cc(C)cc1C)C2(C)C(=O)NS(=O)(=O)c1cccnc1OC (stereo not drawn) [Compound 648, 4-ethoxy-N-[(2-methoxy-3-pyridyl)sulfonyl]-1-methyl-2-[(2,4,6-trimethylphenyl)methyl]isoindoline-1-carboxamide]
++ (“++” means between 3 uM and 10 uM)	CC(C)(C)c1ccc(C(=O)NS(=O)(=O)c2cccc(N)n2)c(OC2CCCCC2)n1 [Compound 649, N-[(6-amino-2-pyridyl)sulfonyl]-6-tert-butyl-2-(cyclohexoxy)pyridine-3-carboxamide]
++ (“++” means between 3 uM and 10 uM)	Cc1cc(C)c(Oc2nc(NC(C)C)ccc2C(=O)NS(=O)(=O)c2cccc(N)n2)c(C)c1 [Compound 650, N-[(6-amino-2-pyridyl)sulfonyl]-6-(isopropylamino)-2-(2,4,6-trimethylphenoxy)pyridine-3-carboxamide]

Structure (SMILES)	EC30
Cc1cccc(C)c1Oc1nc(-c2cc(F)cc(OCC(C)C)c2)ccc1C(=O)NS(=O)(=O)c1cccc(N)n1 [Compound 639, N-[(6-amino-2-pyridyl)sulfonyl]-2-(2,6-dimethylphenoxy)-6-(3-fluoro-5-isobutoxy-phenyl)pyridine-3-carboxamide]	+++ (“+++” means <3 uM)
CC(C)COc1cc(F)cc(-c2ccc(C(=O)NS(=O)(=O)c3cccc(N)n3)c(OCC3CCO3)n2)c1 (stereo not drawn) [Compound 640, N-[(6-amino-2-pyridyl)sulfonyl]-6-(3-fluoro-5-isobutoxy-phenyl)-2-(oxetan-2-ylmethoxy)pyridine-3-carboxamide]	++ (“++” means between 3 uM and 10 uM)
CC(C)COc1cc(F)cc(-c2ccc(C(=O)NS(=O)(=O)c3ccn[nH]3)c(N3C[C@H](C)C[C@H](C)C3)n2)c1 [Compound 642, 2-[(3R,5S)-3,5-dimethyl-1-piperidyl]-6-(3-fluoro-5-isobutoxy-phenyl)-N-(1H-pyrazol-5-ylsulfonyl)pyridine-3-carboxamide]	+++ (“+++” means <3 uM)
